# Source: ChEMBL document CHEMBL1201862, “PubChem BioAssay data set” (2004)
# The source made the active and inactive calls. Cut-off read from the data, not from the text of the source, for most assays here: actives have a measured EC50 and inactives only a lower limit.
# Columns and labels:
# [1] = NIH-3T3 fibroblast cytotoxicity, dose response, cytotoxicity control, cell-based, fluorescence, Alamar Blue, secondary assay (AID 2327); format: functional;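 note: NIH-3T3 mouse fibroblasts cultured with fluconazole at 8 µg/mL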
# [2] = fluconazole-exposed Candida albicans growth modulators – fluorescence, retest, confirmation (AID 2467); format: functional, cell-based
# [3] = P. falciparum Dd2 growth inhibitors, dose response, SYBR Green, cherry-picked samples (AID 1159567); format: functional, cell-based
# Fatty acid synthase = Fatty acid synthase (Homo sapiens, UniProt P49327); test: inhibition of human FAS-TE enzyme activity – biochemical, kinetic fluorescence intensity, dose response (AID 624326); format: functional;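 note: rate of fluorescence rise from hydrolysis of a fluorogenic O-methyl fluorescein ester substrate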
# [4] = viability of HCT116 lacking mutant beta-catenin – cell-based, human colon tumor, dose response (AID 1045); format: functional;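 note: HCT116 colon tumor cells with beta catenin knocked out; cells exposed to compound for 60 hours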
# Protein RecA = target: T1, Protein RecA (Mycobacterium tuberculosis, UniProt P9WHJ3); test: Fluorescence Cell-Free Homogeneous Dose Retest to Identify Inhibitors of RecA-Intein Splicing Activity. [Related pubchem assays (depositor defined):AID2097, AID2223, AID489010, AID492950]; format: functional
# T1 sequence (P9WHJ3 whole entry): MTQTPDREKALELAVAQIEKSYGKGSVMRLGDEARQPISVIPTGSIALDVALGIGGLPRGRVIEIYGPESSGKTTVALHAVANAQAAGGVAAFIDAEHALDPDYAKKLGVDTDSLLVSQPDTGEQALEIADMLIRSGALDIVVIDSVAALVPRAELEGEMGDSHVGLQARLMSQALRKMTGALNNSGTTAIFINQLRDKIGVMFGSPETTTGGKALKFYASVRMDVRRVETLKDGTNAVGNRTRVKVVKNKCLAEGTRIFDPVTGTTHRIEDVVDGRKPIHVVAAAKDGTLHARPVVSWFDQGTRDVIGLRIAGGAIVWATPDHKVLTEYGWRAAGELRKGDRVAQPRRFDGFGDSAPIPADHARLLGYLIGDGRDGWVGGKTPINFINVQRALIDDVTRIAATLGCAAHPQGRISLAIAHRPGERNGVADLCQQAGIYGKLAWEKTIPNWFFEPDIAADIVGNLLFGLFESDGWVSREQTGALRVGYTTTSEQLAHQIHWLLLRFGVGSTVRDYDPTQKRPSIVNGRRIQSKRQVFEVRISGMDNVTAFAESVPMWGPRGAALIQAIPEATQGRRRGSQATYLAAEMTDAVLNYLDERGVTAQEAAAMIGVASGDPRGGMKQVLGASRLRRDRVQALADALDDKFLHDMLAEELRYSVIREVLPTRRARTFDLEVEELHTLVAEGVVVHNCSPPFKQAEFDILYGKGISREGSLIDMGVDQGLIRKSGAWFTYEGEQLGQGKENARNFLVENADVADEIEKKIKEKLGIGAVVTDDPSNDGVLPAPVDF
# [5] = target: T2, Replicative DNA helicase DnaB (Mycobacterium tuberculosis, UniProt P9WMR3); test: DnaB intein splicing inhibitors, dose response, biochemical, cell-free fluorescence (AID 449749); format: functional
# T2 sequence (P9WMR3 whole entry): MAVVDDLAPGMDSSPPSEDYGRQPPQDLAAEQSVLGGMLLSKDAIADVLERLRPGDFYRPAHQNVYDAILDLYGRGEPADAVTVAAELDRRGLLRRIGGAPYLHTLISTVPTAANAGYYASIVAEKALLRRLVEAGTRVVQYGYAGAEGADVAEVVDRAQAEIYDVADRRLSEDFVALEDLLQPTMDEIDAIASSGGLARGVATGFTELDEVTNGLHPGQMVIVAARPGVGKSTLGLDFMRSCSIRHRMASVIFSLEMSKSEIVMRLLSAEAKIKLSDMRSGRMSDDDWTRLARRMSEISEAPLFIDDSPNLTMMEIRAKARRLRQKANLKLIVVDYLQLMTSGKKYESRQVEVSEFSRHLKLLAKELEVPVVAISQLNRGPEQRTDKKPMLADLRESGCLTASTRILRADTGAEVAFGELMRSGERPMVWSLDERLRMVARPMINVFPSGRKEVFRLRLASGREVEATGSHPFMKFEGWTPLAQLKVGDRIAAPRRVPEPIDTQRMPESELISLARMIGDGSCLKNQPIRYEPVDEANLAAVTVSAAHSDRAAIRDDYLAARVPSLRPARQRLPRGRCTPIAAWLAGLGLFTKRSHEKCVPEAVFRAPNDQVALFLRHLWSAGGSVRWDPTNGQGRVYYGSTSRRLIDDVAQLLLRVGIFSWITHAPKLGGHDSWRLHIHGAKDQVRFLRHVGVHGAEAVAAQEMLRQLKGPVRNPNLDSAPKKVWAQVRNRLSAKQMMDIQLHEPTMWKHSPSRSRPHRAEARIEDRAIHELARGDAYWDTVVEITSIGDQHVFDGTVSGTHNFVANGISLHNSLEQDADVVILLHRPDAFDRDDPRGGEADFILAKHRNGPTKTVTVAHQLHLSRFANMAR
# [6] = viability of PTEN-deleted HCT116 cells – cell-based, HCT116 PTEN knockout, dose response (AID 1047); format: functional;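 note: HCT116 colon tumor cells with PTEN knocked out; cells exposed to compound for 60 hours before readout; potency for loss of cell viability measured by luminescence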
# cells = format: functional
# H9c2 = test: cells; format: functional, cell-based; conditions: Rattus norvegicus, H9c2, Myocardium;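 note: confirmatory concentration-response retest of ultra-high-throughput screening hits for modulation of myocardial damage; cell death induced by hydrogen peroxide oxidative stress; compound pretreatment for 60 min then peroxide exposure for 2 h; potency is for protecting the cells against peroxide damage rather than for killing them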
# [7] = target: T3, Heat shock factor protein 1 (Mus musculus, UniProt P38532); test: decrease of HSF1-responsive luciferase luminescence – cell-based, NIH3T3, dose retest, confirmation (AID 2382); format: functional;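 note: NIH3T3 fibroblasts with HSF1-driven luciferase reporter stressed by proteasome inhibitor MG132; luminescence from HSF1-driven luciferase expression after 8 hours of MG132 stress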
# T3 sequence (P38532 whole entry): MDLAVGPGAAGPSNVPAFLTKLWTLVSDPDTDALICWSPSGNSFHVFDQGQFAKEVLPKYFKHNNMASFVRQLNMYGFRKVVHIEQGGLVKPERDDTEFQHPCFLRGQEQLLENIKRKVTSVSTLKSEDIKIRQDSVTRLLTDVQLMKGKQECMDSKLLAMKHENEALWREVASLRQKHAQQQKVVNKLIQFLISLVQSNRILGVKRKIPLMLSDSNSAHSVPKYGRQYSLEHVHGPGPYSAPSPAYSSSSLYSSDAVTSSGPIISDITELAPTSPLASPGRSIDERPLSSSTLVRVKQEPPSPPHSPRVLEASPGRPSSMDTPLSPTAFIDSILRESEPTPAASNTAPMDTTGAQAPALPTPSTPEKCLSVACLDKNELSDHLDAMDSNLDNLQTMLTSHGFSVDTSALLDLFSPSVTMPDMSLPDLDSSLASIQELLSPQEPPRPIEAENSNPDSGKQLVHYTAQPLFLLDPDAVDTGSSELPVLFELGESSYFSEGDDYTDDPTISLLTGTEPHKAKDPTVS
# [8] = luciferase reporter signal suppression in cells – H4 neuroglioma cells, luminescence, dose response (AID 1990); format: functional, cell-based
# [9] = Luminescence Cell-Based Dose Response HTS to Identify Inhibitors of 5'UTR Stem-Loop Driven Prion Protein mRNA Translation in H4 Neuroglioblastoma Cells. [Related pubchem assays: 1827 (Project Summary), 1813 (Primary HTS)]; format: functional
# [10] = alpha-synuclein stem-loop luciferase translation blockers – H4 neuroglioma cells, luminescence, confirmation (AID 1988); format: functional, cell-based
# H4 = test: Luminescence Cell-Based Dose Response HTS to Identify Activators of 5'UTR Stem-Loop Driven Prion Protein mRNA Translation in H4 Neuroglioblastoma Cells. [Related pubchem assays: 1829 (Project Summary), 1814 (Primary HTS)]; format: functional; conditions: Homo sapiens
# [11] = Luminescence Cell-Based Dose Response HTS to Identify Activators of Luciferase Translation or Activity in H4 […] Cells. [Related pubchem assays: 1829 (Project Summary), 1814 (Primary HTS)]; format: functional
# [12] = Luminescence Cell-Based Dose Confirmation HTS to Identify Activators of 5'UTR Stem-Loop Driven Alpha-Synuclein mRNA Translation in H4 Neuroglioblastoma Cells. [Related pubchem assays: 1829 (Project Summary), 1814 (Primary HTS)]; format: functional
# Fatty acid synthase, sequence (P49327 whole entry): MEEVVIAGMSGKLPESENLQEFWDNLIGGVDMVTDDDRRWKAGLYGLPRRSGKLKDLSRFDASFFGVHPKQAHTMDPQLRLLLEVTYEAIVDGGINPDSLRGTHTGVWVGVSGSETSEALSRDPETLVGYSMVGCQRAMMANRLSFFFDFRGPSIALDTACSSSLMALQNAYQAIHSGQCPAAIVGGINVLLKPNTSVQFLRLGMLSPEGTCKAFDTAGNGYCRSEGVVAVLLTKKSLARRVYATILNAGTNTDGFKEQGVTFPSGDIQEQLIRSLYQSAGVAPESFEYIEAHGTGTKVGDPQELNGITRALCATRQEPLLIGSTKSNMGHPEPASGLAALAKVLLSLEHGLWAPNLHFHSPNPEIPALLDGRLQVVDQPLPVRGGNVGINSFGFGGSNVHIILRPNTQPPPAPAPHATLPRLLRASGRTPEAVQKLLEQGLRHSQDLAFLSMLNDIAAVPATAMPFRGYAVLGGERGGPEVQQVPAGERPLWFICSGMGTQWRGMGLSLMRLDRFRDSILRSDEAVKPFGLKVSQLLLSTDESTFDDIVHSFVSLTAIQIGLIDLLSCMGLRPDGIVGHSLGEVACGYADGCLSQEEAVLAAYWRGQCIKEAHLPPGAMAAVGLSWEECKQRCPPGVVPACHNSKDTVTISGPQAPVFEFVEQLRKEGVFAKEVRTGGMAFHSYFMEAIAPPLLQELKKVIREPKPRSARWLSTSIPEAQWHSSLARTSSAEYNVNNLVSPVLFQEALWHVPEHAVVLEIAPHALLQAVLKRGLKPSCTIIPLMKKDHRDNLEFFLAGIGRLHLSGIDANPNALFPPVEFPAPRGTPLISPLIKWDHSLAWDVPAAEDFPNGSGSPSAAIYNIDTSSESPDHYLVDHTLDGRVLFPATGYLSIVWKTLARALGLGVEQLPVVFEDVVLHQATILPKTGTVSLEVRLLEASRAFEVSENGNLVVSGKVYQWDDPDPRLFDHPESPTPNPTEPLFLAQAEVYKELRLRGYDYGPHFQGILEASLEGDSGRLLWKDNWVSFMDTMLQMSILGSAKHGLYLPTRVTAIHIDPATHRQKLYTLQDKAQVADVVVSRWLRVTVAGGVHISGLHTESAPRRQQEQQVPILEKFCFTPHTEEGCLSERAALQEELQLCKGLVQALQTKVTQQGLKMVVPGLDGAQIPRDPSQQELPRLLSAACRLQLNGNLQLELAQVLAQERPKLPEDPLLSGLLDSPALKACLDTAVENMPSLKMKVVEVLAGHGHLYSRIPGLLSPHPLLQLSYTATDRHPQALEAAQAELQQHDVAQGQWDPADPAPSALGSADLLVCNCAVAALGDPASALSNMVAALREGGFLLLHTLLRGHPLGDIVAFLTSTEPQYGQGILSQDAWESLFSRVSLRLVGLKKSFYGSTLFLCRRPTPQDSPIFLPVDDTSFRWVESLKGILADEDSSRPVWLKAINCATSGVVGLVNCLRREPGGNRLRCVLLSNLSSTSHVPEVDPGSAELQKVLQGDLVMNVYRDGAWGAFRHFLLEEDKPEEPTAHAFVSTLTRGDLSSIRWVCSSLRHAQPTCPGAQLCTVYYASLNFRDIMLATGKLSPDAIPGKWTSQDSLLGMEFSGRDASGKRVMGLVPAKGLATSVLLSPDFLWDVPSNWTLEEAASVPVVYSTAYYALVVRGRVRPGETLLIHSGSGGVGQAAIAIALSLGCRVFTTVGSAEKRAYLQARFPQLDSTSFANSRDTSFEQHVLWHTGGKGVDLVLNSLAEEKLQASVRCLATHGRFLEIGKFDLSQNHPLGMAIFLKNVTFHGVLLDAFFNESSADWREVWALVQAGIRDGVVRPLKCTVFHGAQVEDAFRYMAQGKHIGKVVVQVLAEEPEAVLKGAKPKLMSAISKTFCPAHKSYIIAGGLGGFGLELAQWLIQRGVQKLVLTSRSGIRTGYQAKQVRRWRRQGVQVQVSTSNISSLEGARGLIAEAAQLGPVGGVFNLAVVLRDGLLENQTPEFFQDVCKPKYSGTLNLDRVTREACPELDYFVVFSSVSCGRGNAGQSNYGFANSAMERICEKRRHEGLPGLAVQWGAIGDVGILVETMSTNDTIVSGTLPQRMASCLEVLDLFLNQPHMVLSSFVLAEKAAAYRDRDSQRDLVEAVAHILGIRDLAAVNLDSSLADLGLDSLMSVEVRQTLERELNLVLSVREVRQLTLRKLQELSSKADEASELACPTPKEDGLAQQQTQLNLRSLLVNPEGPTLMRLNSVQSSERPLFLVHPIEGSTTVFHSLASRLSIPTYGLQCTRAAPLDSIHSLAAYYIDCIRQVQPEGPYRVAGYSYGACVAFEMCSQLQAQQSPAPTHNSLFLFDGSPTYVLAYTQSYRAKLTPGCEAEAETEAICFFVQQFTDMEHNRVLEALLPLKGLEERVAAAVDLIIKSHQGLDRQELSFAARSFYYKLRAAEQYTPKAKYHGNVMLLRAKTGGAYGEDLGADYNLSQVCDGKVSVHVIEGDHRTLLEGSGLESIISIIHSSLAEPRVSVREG
smiles,measurement,setting,value
CCOc1ccccc1OCCN1CCC(Cc2ccccc2)CC1,EC50,[1],> 150 µM (inactive)
same,EC50,[2],> 38 µM (not active)
CCS(=O)(=O)N1CCCCN2[C@H](CO)[C@H](c3ccc(-c4cccc(C#N)c4)cc3)[C@@H]2C1,AC50,[3],12.5 µM (active)
O=C(Nc1nnc(SCc2ccccc2Cl)s1)c1cccc([N+](=O)[O-])c1,IC50,Fatty acid synthase,11 µM (active)
O=Cc1ccc(Sc2nnc(-c3ccccc3)o2)c([N+](=O)[O-])c1,EC50,[4],18.1 µM (active)
same,EC50,Protein RecA,5.46 µM (active)
same,AC50,[5],9.51 µM (active)
same,EC50,[6],21.4 µM (active)
COc1ccc(/C=C2\CN(Cc3ccccc3)C/C(=C\c3ccc(OC)cc3)C2=O)cc1,EC50,[4],5.52 µM (active)
same,EC50,[6],6.02 µM (active)
COCC(=O)N1CC2(C1)CN(Cc1ccccc1F)[C@@H](CO)c1[nH]c3cc(OC)ccc3c12,AC50,[3],6.55 µM (active)
O=C(Nc1nnc(C2=COCCO2)o1)c1ccc(F)cc1,IC50,cells,6.55 µM (active)
Fc1ccc(-n2cc(-c3ccccc3)c3c(N4CCOCC4)ncnc32)cc1,IC50,H9c2,> 79 µM (inactive)
same,EC50,[7],2.3 µM (active)
O=C(NN=C(S)Nc1ccc(Cl)cc1)c1ccccc1OC(F)F,EC50,[1],72.6 µM (active)
same,EC50,[2],6.72 µM (active)
Cc1cccc(C2c3[nH]c4ccccc4c3CCN2C(=O)c2cc(-c3cccn3C)[nH]n2)n1 (stereo unspecified),EC50,[1],> 160 µM (inconclusive)
same,EC50,[2],3.22 µM (active)
O=C(Nc1ccc2nc(N3CCOCC3)sc2c1)c1cc2ccccc2o1,IC50,H9c2,> 79 µM (inactive)
CC(C)OC(=O)/C(C#N)=C/c1cn(Cc2ccccc2)c2ccccc12,EC50,[8],11.5 µM (active)
same,EC50,[9],13.4 µM (active)
same,EC50,[10],7.08 µM (active)
CCCn1nnc(NC(=O)COc2ccc(CC)cc2)n1,IC50,cells,27.6 µM (active)
COc1ccc2nc(O)c(CN(c3ccccc3OC)S(=O)(=O)c3ccccc3)cc2c1,IC50,H9c2,13.3 µM (active)
same,EC50,H4,> 120 µM (not active)
same,EC50,[11],14.3 µM (active)
same,EC50,[12],> 120 µM (not active)
O=Nc1c(O)n(Cc2cccc(C(F)(F)F)c2)c2ccccc12,EC50,[1],> 160 µM (inactive)
same,EC50,[2],1.89 µM (active)
Cc1cnc(NC(=O)CSc2nc(O)c3ccccc3n2)s1,IC50,H9c2,> 79 µM (inactive)
O=C(COc1ccc2c(-c3ccccc3)cc(=O)oc2c1)N[C@@H](Cc1c[nH]c2ccc(O)cc12)C(=O)O,IC50,Fatty acid synthase,6.9 µM (active)
